≈ marks a conversion by molar mass, not a printed value.
Assays:
[1] = test system: C. glabrata, Fluconazole, Voriconazole, Itraconazole and/or Caspofungin resistant isolates; assay: Susceptibility of resistant clinical isolates (MIC, broth dilution); format: cell-based; conditions: for MIC90: Nakaseomyces glabratus
Experimental: The efficacy of compound IV″ was investigated on 563 clinical isolates of 33 human fungal pathogens. […] For species with n≧10, the MIC90 (MIC, minimal inhibitory concentration) is given as ng/ml. For species with n≦10, the MIC range is given as ng/ml. 24 h and 48 h reads are indicated (Table 1).
The MIC90 was calculated for the indicated species.

[2] = test system: C. albicans, Fluconazole, Voriconazole, Itraconazole and/or Caspofungin resistant isolates; assay: as above; format: cell-based; conditions: for MIC90: Candida albicans

Row | Structure (SMILES) | MIC90 [1] | MIC90/MIC range 48 h ([1]; resistant C. glabrata isolates (n = 21), MIC90, 48 h) | MIC90 [2] | MIC90/MIC range 48 h ([2]; resistant C. albicans isolates (n = 20), MIC90, 48 h)
1 | O=C([O-])CCCCCCC/C=C\C#CC#Cc1ccco1.[K+] [Compound IV″, potassium (Z)-14-(furan-2-yl)tetradeca-9-en-11,13-diynoate] | 0.02 µg/mL | 0.02 µg/mL | 0.0025 µg/mL | 0.0025 µg/mL
2 | C[C@@H](c1ncncc1F)[C@](O)(Cn1cncn1)c1ccc(F)cc1F [Voriconazole] | 0.5 µg/mL (≈ 1.43 µM) | – | > 0.5 µg/mL | –
